Source: patent publication US10952995B2, “Azaindoles as inhibitors of HPK1” (Genentech, Inc., priority 2017, dated 2021)
Counter-ions that a name gives are not always drawn.

Target: HPK1 (Homo sapiens (Human), UniProt Q92918)
Assay: HPK Lantha Binding Assay (TR-FRET, Tracer-222 / Eu-Anti-GST Ab)
Conditions: 2 nM HPK1, 2 nM Eu-Anti-GST Ab, 15 nM Tracer222, 60 min incubation; Morrison ki fit
Protocol: Methods for Biological evaluation to assess compound inhibition of HPK-1:
I. Compound Dilution: • 1. Prepare 12.5 uL/well of 5 mM of compounds (100×) to column 2 and column 13 & 10 ul/well DMSO in column 3-12, 14-23 and well A1-H1, I24-P24 of compound plate with Bravo. For reference compound, the top concentration is 1 mM • 2. Add 10 ul 2 mM staurosporine in well J1-P1 and A24-H24 • 3. Perform 11 point 5-fold compound serial dilution with Bravo • a. transfer 2.5 ul compounds from column 2 and column 13 to 10 ul of DMSO in column 3 and column 14 & so on • 4. Centrifuge the compound plate at 2500 rpm for 1 min • 5. Transfer 80 nl compounds into assay plate using Echo. One compound plate makes two assay plates • 6. Seal the assay plate and store in N2 cabinet.
2 nM HPK1, 2 nM Eu-Anti-GST Ab, 15 nM Tracer222, 60 min incubation
III. HPK Lantha Binding Assay: • 1. Add 4 ul 2×HPK1 and Eu-anti-GST antibody into each well of assay plate using Multidrop • 2. Incubate at 23 C incubator for 1 h • 3. Add 4 ul 2× Tracer-222 into each well of assay plate using Multidrop • 4. Incubate at 23 C incubator for 1 h • 5. Read the assay plate in Envision • a. TR_FRET, 340 ex/615 and 665 em • b. 100 usec Delay, 200 usec integration
IV. Analysis: • 1. Compound Ki was analyzed using Morrison ki fit model in XL-fit • a. fit=(1−((((E+x)+(Ki*(1[…](S/Kd))))−(((((E+x)+(Ki*(1+(S/Kd))))^2)−((4*E)*x))^0.5))/(2*E))) • res=(y-fit) • b. Parameters: • E=enzyme concentration • S=Tracer222 concentration, Kd=Tracer222 Kd • All in the same units (uM)

Sequence of HPK1 (Q92918 1-346): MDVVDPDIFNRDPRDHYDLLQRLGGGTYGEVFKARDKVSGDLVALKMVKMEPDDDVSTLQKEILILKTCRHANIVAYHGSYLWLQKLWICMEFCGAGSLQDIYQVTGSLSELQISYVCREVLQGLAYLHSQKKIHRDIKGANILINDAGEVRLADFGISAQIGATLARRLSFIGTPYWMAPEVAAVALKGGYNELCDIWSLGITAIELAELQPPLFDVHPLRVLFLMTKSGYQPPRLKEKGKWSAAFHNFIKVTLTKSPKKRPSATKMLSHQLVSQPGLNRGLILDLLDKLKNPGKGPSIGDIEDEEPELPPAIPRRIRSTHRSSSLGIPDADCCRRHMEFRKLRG

SMILES	Ki
O=C1COCCN1c1cccc(-c2cnc3[nH]c(CO)c(C(F)(F)F)c3c2)c1 [Compound 1-13, 4-(3-(2-(hydroxymethyl)-3-(trifluoromethyl)-1H-pyrrolo[2,3-b]pyridin-5-yl)phenyl)morpholin-3-one]	1700 nM
CCc1c(Cl)[nH]c2ncc(-c3ccc(N)c(C(=O)N4CC(O)C4)n3)cc12 [Compound 1-6, (3-amino-6-(2-chloro-3-ethyl-1H-pyrrolo[2,3-b]pyridin-5-yl)pyridin-2-yl)(3-hydroxyazetidin-1-yl)methanone formate]	15 nM
CCc1c(Cl)[nH]c2ncc(-c3ccc(N)c(C(=O)N(C)C)c3)cc12 [Compound 1-3, 2-amino-5-(2-chloro-3-ethyl-1H-pyrrolo[2,3-b]pyridin-5-yl)-N,N-dimethylbenzamide]	0.9 nM
CCc1c(C)[nH]c2ncc(-c3ccc(N)c(C(=O)N(C)C)c3)cc12 [Compound 1-4, 2-amino-5-(3-ethyl-2-methyl-1H-pyrrolo[2,3-b]pyridin-5-yl)-N,N-dimethylbenzamide]	15 nM
Cc1[nH]c2ncc(-c3cc(N)cc(-c4ncccc4CO)c3)cc2c1C(F)(F)F [Compound 1-12, (2-(3-amino-5-(2-methyl-3-(trifluoromethyl)-1H-pyrrolo[2,3-b]pyridin-5-yl)phenyl)pyridin-3-yl)methanol]	24 nM
CCc1c(Cl)[nH]c2ncc(-c3cccc(N4CCOCC4=O)c3)cc12 [Compound 1-1, 4-(3-(2-chloro-3-ethyl-1H-pyrrolo[2,3]pyridin-5-yl)phenyl)morpholin-3-one]	2 nM
Cc1[nH]c2ncc(-c3ccc(N)c(C(=O)N(C)C)c3)cc2c1C(F)(F)F [Compound 1-10, 2-amino-N,N-dimethyl-5-(2-methyl-3-(trifluoromethyl)-1H-pyrrolo[2,3-b]pyridin-5-yl)benzamide]	32 nM
O=C1COCCN1c1cccc(-c2cnc3[nH]c(Cl)c(CCF)c3c2)c1 [Compound 1-14, 4-(3-(2-chloro-3-(2-fluoroethyl)-1H-pyrrolo[2,3-b]pyridin-5-yl)phenyl) morpholin-3-one]	17 nM
CCc1c(F)[nH]c2ncc(-c3cccc(N4CCOCC4=O)c3)cc12 [Compound 1-18, 4-[3-(3-Ethyl-2-fluoro-1H-pyrrolo[2,3-b]pyridin-5-yl)phenyl]morpholin-3-one]	4 nM
CCc1c(Cl)[nH]c2ncc(-c3ccc(N)c(C(=O)N(C)C)n3)cc12 [Compound 1-2, 3-amino-6-(2-chloro-3-ethyl-1H-pyrrolo[2,3-b]pyridin-5-yl)-N,N-dimethylpicolinamide]	3 nM
Cc1[nH]c2ncc(-c3cccc(N4CCOCC4CO)n3)cc2c1C(F)(F)F (stereo not drawn) [Compound 1-15, (4-(6-(2-methyl-3-(trifluoromethyl)-1H-pyrrolo[2,3-b]pyridin-5-yl)pyridin-2-yl)morpholin-3-yl)methanol]	75 nM
CCc1c(Cl)[nH]c2ncc(-c3cccc(N4CCOCC4=O)n3)cc12 [Compound 1-5, 4-(6-(2-chloro-3-ethyl-1H-pyrrolo[2,3-b]pyridin-5-yl)pyridin-2-yl)morpholin-3-one]	2 nM
Cc1[nH]c2ncc(-c3cccc(N4CCCNC4=O)n3)cc2c1C(F)(F)F [Compound 1-16, 1-(6-(2-methyl-3-(trifluoromethyl)-1H-pyrrolo[2,3-b]pyridin-5-yl)pyridin-2-yl)tetrahydropyrimidin-2(1H)-one]	82 nM
Cc1[nH]c2ncc(-c3ccc(N)c(N4CCOCC4=O)n3)cc2c1C(F)(F)F [Compound 1-11, 4-(3-amino-6-(2-methyl-3-(trifluoromethyl)-1H-pyrrolo[2,3-b]pyridin-5-yl)pyridin-2-yl)morpholin-3-one]	13 nM
Cc1cc2cc(-c3ccc(N)c(C(=O)N(C)C)c3)cnc2[nH]1 [Compound 1-17, 2-amino-N,N-dimethyl-5-(2-methyl-1H-pyrrolo[2,3-b]pyridin-5-yl)benzamide]	1300 nM
CCc1c(Cl)[nH]c2ncc(-c3ccnc(N4CCOC4=O)n3)cc12 [Compound 1-7, 3-(4-(2-chloro-3-ethyl-1H-pyrrolo[2,3-b]pyridin-5-yl)pyrimidin-2-yl)oxazolidin-2-one formate]	33 nM
Cc1[nH]c2ncc(-c3cccc(N4CCOCC4=O)n3)cc2c1C(F)(F)F [Compound 1-8, 4-(6-(2-methyl-3-(trifluoromethyl)-1H-pyrrolo[2,3-b]pyridin-5-yl)pyridin-2-yl)morpholin-3-one]	68 nM
Cc1[nH]c2ncc(-c3ccc(N)c(C(=O)N(C)C)n3)cc2c1C(F)(F)F [Compound 1-9, 3-amino-N,N-dimethyl-6-(2-methyl-3-(trifluoromethyl)-1H-pyrrolo[2,3-b]pyridin-5-yl)picolinamide]	76 nM

Results, then the molecule that gave them:

Ki	SMILES
17 nM	CN(C)C(=O)c1c(N)ccc(-c2cnc3[nH]c(Cl)c(CCO)c3c2)c1F [Compound 1-20, 6-Amino-3-[2-chloro-3-(2-hydroxyethyl)-1H-pyrrolo[2,3-b]pyridin-5-yl]-2-fluoro-N,N-dimethylbenzamide]
2.7 nM	CCc1c(Cl)[nH]c2ncc(-c3ccc(N)c(C(=O)N(C)C)c3F)cc12 [Compound 1-27, 6-amino-3-(2-chloro-3-ethyl-1H-pyrrolo[2,3-b]pyridin-5-yl)-2-fluoro-N,N-dimethylbenzamide]
12 nM	CN(C)C(=O)c1c(N)ccc(-c2cnc3[nH]c(Cl)c(CCO)c3c2Cl)c1F [Compound 1-26, 6-amino-3-(2,4-dichloro-3-(2-hydroxyethyl)-1H-pyrrolo[2,3-b]pyridin-5-yl)-2-fluoro-N,N-dimethylbenzamide]
9.4 nM	CN(C)C(=O)c1cc(-c2cnc3[nH]c(Cl)c(CCO)c3c2Cl)ccc1N [Compound 1-22, 2-amino-5-(2,4-dichloro-3-(2-hydroxyethyl)-1H-pyrrolo[2,3-b]pyridin-5-yl)-N,N-dimethylbenzamide]
160 nM	COCc1c(Cl)[nH]c2ncc(-c3ccc(N)c(C(=O)N(C)C)c3F)cc12 [Compound 1-23, 6-amino-3-(2-chloro-3-(methoxymethyl)-1H-pyrrolo[2,3-b]pyridin-5-yl)-2-fluoro-N,N-dimethylbenzamide]
1 nM	CCc1c(F)[nH]c2ncc(-c3ccc(N)c(C(=O)N(C)C)c3F)cc12 [Compound 1-19, 6-Amino-3-(3-ethyl-2-fluoro-1H-pyrrolo[2,3-b]pyridin-5-yl)-2-fluoro-N,N-dimethylbenzamide]
89 nM	O=C1COCCN1c1cccc(-c2cnc3[nH]c(Cl)c(CCO)c3c2)c1 [Compound 1-21, 4-{3-[2-Chloro-3-(2-hydroxyethyl)-1H-pyrrolo[2,3-b]pyridin-5-yl]phenyl}morpholin-3-one]
31 nM	CCc1c(Cl)[nH]c2ncc(-c3cccc(C4NCCNC4=O)c3)cc12 (stereo not drawn) [Compound 1-25, 3-(3-(2-chloro-3-ethyl-1H-pyrrolo[2,3-b]pyridin-5-yl)phenyl)piperazin-2-one]
32 nM	CCc1c(Cl)[nH]c2ncc(-c3ccc(C4NCCNC4=O)cc3)cc12 (stereo not drawn) [Compound 1-24, 3-(4-(2-chloro-3-ethyl-1H-pyrrolo[2,3-b]pyridin-5-yl)phenyl)piperazin-2-one]
